Where “and” joins values, the source holds several entries; their conditions need not be identical. Identical values can stand only once.
What was measured:
[1] = test system: KYSE70 cells; test: MTT assay, KYSE70; type: cell-based, human
Outline: (§1)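 Cells seeded at 2,200–2,500/well in RPMI-1640 with 10% FBS; taxol-resistant lines maintained in 100 nm/L paclitaxel. Compounds at 0–50 μM added next day (0.1% DMSO control), five replicate wells, 48 h exposure. Viability by MTT, absorbance 490 nm.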

[2] = test system: H1975 cells; test: MTT assay for cell proliferation and cytotoxicity, H1975; type: cell-based, human; settings: Homo sapiens, NCI-H1975, 48 h, MTT, 48 h, H1975, n = 5; read-out: IC50 48 h H1975
Outline: as §1

[3] = test system: H1650 cells; test: MTT assay for cell proliferation and cytotoxicity, H1650; type: cell-based; settings: Homo sapiens, NCI-H1650, 48 h, H1650, n = 5
Outline: as §1

[4] = test system: EGFR-TK pathway in KYSE450TR cells; test: Western blot of EGFR-TK pathway proteins, KYSE450TR; type: cell-based, human; settings: 3 μM, vs control
Experimental: (§2) Cells treated with 1% DMSO were used as control. Then the cells were harvested and total proteins were extracted. Total proteins were separated by 12% SDS polyacrylamide gel electrophoresis and transferred onto PVDF membranes. The membrane was blocked for 1 h, then incubated overnight with a 1 : 1000 dilution of anti-EGFR, anti-p-EGFR (Tyr1068/Tyr1086), anti-Erk1/2, and anti-p-Erk1/2 (Thr202/Tyr204), or 1 : 3000 dilution of anti-GAPDH primary antibody at 4°C. 1 : 3000 anti-rabbit secondary antibodies incubated for 2 h at room temperature. Protein bands were developed by chemiluminescence.

[5] = test system: KYSE450TR cells; test: Annexin V/PI flow cytometry for apoptosis, KYSE450TR; type: cell-based, human; settings: 48 h
Experimental: Cell-apoptosis analysis was carried out by flow cytometry using the Annexin V/PI apoptosis methods. […] Cells were harvested and incubated with 250 μL of 1 × Annexin V binding buffer containing 5 μL PI and 5 μL FITC Annexin V (final concentration 1.8 μg/ml, Biolegend (cat: 640945) for 15 min at room temperature in dark. 200 µL of 1 × binding buffer was added for flow cytometry analysis (BD FACSCalibur™ Flow Cytometer).

[6] = test system: EGFR-TK pathway in KYSE450 cells; test: Western blot of EGFR-TK pathway proteins, KYSE450; type: cell-based, human; settings: KYSE450, 3 μM
Experimental: as §2

[7] = test system: KYSE450 cells; test: Cell cycle analysis by flow cytometry, KYSE450; type: cell-based, human; settings: KYSE450, 24 h; icotinib at 2 μM, 3l at 8 μM
Experimental: (§3) KYSE450/KYSE450TR cells were plated in 6-well plates with a density of 1×10^5 cells/well and cultured overnight. […] Trypsinization treatment and the cells were collected by centrifugation. The cell pellet was re-suspended in 70% ethanol at −20°C for at least 3 h. The cells were washed with PBS and were re-suspended in 250 μL of 0.6% tricine with Renease A for 1 h, then stained in PI (final concentration 1.8 μg/ml, Biolegend cat: 640945) for 15 min in dark. Cells were retransferred to the BD FACSCalibur™ Flow Cytometer. All analyses were performed with FlowJo software v105.3.6.

[8] = biological target: T1, EGFR wild protein (H672-A1210) (Homo sapiens, UniProt P00533); test: EGFR protein affinity determined with SPR; type: binding; settings: immobilized wild-type EGFR
T1 construct: purchased Active MOTIF 31165
Experimental: Firstly, EGFR protein (protein concentration : 0.468 μg/μL, Active MOTIF, cat: 31165, lot: 28215004) was covalently immobilized onto a CM5 sensor chip at densities of 2000 response units. […] During the drug-protein interaction, the change of the refractive index was measured in real-time which would allow the plotting of the results of interaction as response units versus time. The interaction results were analyzed under a BIA evaluation 3.0 software.

[9] = test system: KYSE70TR cells; test: MTT assay, taxol-resistant KYSE70TR; type: cell-based, human; settings: for blank-corrected absorbance 490 nm relative to control (fraction) / inhibition (1 minus fraction of control): 70TR
Excerpt: (§4) The human cancer cells (H1650, H1975, KYSE70, KYSE410 and KYSE450) were purchased from the Type Culture Collection of the Chinese Academy of Sciences (Shanghai, China). The human immortalized normal esophageal epithelial cell line SHEE was donated by Dr. Enmin Li from the Laboratory of Tumor Pathology (Shantou University Medical College, Shantou, Guangdong, China). Drug-resistant cells (H1650TR, H1975OR, KYSE70TR, KYSE410TR and KYSE450TR) were induced by China-US (Henan) Hormel Cancer Institute. The cellswere cultured in RPMI-1640 complete growth medium containing 100 U/mL penicillin-streptomycin and 10% FBS. Based on the above medium formula, 100 nm/L paclitaxel was added in taxol-resistant cells, 100 nm/L gefitinib was added in gefitinib-resistant cells. The cells were incubated at 37 °C in an atmosphere containing 5% of CO2. The compounds were dissolved in DMSO to make a 50 mM stock solution and were diluted to the concentration of working solutions with complete growth medium before administration.
Cells were seeded in 96-well plates with 2,200–2,500 cells/well in100 μL. One day after seeding, test compounds with the concentration between 0 and 50 μM were added with 0.1% DMSO as control. Five multiple wells for each concentration. […] The absorbance at 490 nm was measured using a microplate reader (Thermo).

[10] = test system: KYSE450TR cells; test: Cell cycle analysis by flow cytometry, KYSE450TR; type: cell-based, human; settings: 24 h, icotinib at 8 μM, 3l at 8 μM
Experimental: as §3

[11] = test system: H1650TR cells; test: MTT assay, taxol-resistant H1650TR; type: cell-based; settings: Homo sapiens, NCI-H1650, 48 h, value in parentheses in H1650 column
Excerpt: as §4
Cells were seeded in 96-well plates with 2,200–2,500 cells/well in100 μL. One day after seeding, test compounds with the concentration between 0 and 50 μM were added with 0.1% DMSO as control. Five multiple wells for each concentration. After 48 h, MTT was added and incubated in the plate for 1–4 h in the incubator. The absorbance at 490 nm was measured using a microplate reader (Thermo).

T1 sequence (P00533 672-1210): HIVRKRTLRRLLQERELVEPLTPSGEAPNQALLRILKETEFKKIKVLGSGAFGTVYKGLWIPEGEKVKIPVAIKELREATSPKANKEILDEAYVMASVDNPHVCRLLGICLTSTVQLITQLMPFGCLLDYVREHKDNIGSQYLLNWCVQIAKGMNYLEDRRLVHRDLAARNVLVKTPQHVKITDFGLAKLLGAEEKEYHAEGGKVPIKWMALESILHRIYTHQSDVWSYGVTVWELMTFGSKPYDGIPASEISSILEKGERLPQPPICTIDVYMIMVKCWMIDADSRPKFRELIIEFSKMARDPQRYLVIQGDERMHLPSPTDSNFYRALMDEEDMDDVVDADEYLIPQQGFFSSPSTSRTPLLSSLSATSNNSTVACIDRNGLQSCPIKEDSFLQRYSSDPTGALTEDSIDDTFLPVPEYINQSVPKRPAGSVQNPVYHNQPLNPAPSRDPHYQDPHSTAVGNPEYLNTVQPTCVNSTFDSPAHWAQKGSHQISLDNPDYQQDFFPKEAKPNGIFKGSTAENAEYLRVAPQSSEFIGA

Structure (SMILES): FC(F)(F)c1ccc(-n2cc(-c3cccc(Nc4ncnc5cc6c(cc45)OCCOCCOCCO6)c3)nn2)cc1 [compound 3l]
- IC50 ([1]; Homo sapiens, KYSE-70, MTT, 48 h, KYSE70, n = 5): 4.25 ± 0.21 µM
- blank-corrected absorbance 490 nm relative to control (fraction) ([1]; KYSE70, concentration 2.25): 0.9298
- inhibition (1 minus fraction of control) ([1]; KYSE70, concentration 2.25): 0.07024
- blank-corrected absorbance 490 nm relative to control (fraction) ([1]; KYSE70, concentration 4.5): 0.4365
- inhibition (1 minus fraction of control) ([1]; KYSE70, concentration 4.5): 0.5635
- blank-corrected absorbance 490 nm relative to control (fraction) ([1]; KYSE70, concentration 9): 0.2659
- inhibition (1 minus fraction of control) ([1]; KYSE70, concentration 9): 0.7341
- IC50 [2]: 3.26 ± 0.26 µM
- IC50 [3]: 4.4 ± 0.32 µM
- P-EGFR (Tyr1068) protein levels [4]: lower than the control at 1 and 2 h
- P-ERK1/2 (Thr202/Tyr204) protein levels [4]: lower than the control at 6 h
- proportion of apoptotic cells ([5]; 5 μM): 32.12%
- proportion of apoptotic cells ([5]; 10 μM): 83.69%
- EGFR (Tyr1068) protein levels, 3l group compared with icotinib group [6]: no obvious difference
- ERK1/2 protein levels ([6]; vs control): lower than the control at 0.5, 1, 2, 3, and 6 h
- P-EGFR (Tyr1068) protein levels ([6]; vs control): lower than the control at 1 h
- P-EGFR (Tyr1086) protein levels ([6]; vs control): lower than the control at 0.5, 1, 2, 3, and 6 h
- P-ERK1/2 (Thr202/Tyr204) protein levels ([6]; vs control): lower than the control at 0.5, 1, 2, 3, and 6 h
- cell cycle phase in which cells were arrested [7]: G2/M phase
- Rmax(RU) [8]: 25.21 RU
- Kd ([8]; 25°C): 8.23 µM and 8.24 µM
- blank-corrected absorbance 490 nm relative to control (fraction) ([9]; concentration 3): 0.722
- inhibition (1 minus fraction of control) ([9]; concentration 3): 0.278
- blank-corrected absorbance 490 nm relative to control (fraction) ([9]; concentration 6): 0.41
- inhibition (1 minus fraction of control) ([9]; concentration 6): 0.59
- blank-corrected absorbance 490 nm relative to control (fraction) ([9]; concentration 12): 0.2379
- inhibition (1 minus fraction of control) ([9]; concentration 12): 0.7621
- IC50 ([9]; Homo sapiens, MTT, 48 h, taxol-resistant KYSE70TR, value in parentheses, read-out: IC50 48 h KYSE70TR (data in parentheses) (converted)): 5.13 µM
- cell cycle phase in which cells were arrested [10]: G2/M phase
- IC50 [11]: 8.43 µM

From publication PMC9709406 (Frontiers in Pharmacology, 2022)
